Experimental data published in ChEMBL document CHEMBL1201862, “PubChem BioAssay data set” (2004).
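96-well plates; 48 h exposure; 5 concentrations. Endpoints by linear interpolation between flanking doses. Not reached: highest tested concentration assigned. GI50: concentration for 50% inhibition of growth.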 The source made the active and inactive calls. No stated cut-off is given here; in the data, active = GI50 up to about 1.1 µM and inactive = higher.

What was measured:
Assay in all cases: NCI-60 cell line screen, 48 h
DMS-273 = test system: DMS-273
KM-20L2 = test system: KM-20L2
LXFL 529 = test system: LXFL 529
M19-MEL = test system: M19-MEL
RXF 631 = test system: RXF 631
SNB-78 = test system: SNB-78
DMS-114 = test system: DMS-114
XF498 = test system: XF498

| SMILES | GI50 (DMS-273) | GI50 (KM-20L2) | GI50 (LXFL 529) | GI50 (M19-MEL) | GI50 (RXF 631) | GI50 (SNB-78) | GI50 (DMS-114) | GI50 (XF498) |
| --- | --- | --- | --- | --- | --- | --- | --- | --- |
| CCCCCCN(CCCCCC)C1=CC(=O)C(=O)c2ccccc21 | 19.8 µM (inactive) | 18.2 µM (inactive) | 19.3 µM (inactive) | 2.26 µM (inactive) | 14.7 µM (inactive) | 23 µM (inactive) |  |  |
| Cc1nc2nn(C)cc2c(=O)n1/N=C/c1ccccc1 | > 100 µM (inactive) | > 100 µM (inactive) |  | > 100 µM (inactive) |  | > 100 µM (inactive) | > 100 µM (inactive) | > 100 µM (inactive) |
| CN(C)c1ccc(/C=N\N2C(=O)c3ccccc3C2=O)cc1 | > 100 µM (inactive) | > 100 µM (inactive) | > 100 µM (inactive) | > 100 µM (inactive) |  | > 100 µM (inactive) | > 100 µM (inactive) | > 100 µM (inactive) |
| CCOC(=O)/C(C(=O)c1ccccc1)=C1/NCCN1C |  | > 100 µM (inactive) | > 100 µM (inactive) | > 100 µM (inactive) |  | > 100 µM (inactive) |  | > 100 µM (inactive) |
| C=C1CC2CC[C@@]34C[C@@H]5O[C@@H]6C(O[C@H]7CC[C@H](CC(=O)OC8[C@@H](C)C9OC%10C[C@]%11(C[C@@H]%12O[C@@]%13(C[C@@H](C)[C@@H]%12O%11)C[C@H](C)[C@@H]%11OC%12CC(C(O)CO)OC%12C[C@@H]%11O%13)OC%10CC9O[C@H]8C[C@H]8O[C@@H](CC[C@@H]1O2)C[C@@H](C)C8=C)O[C@@H]7[C@@H]6O3)C5O4 (stereo partly specified) | 0.000499 µM (active) | 0.000428 µM (active) | 0.000564 µM (active) |  | 0.000603 µM (active) | 0.00178 µM (active) |  | 0.000267 µM (active) |
| N#C/C(=C/c1ccsc1)C(=O)c1ccccc1 | > 100 µM (inactive) | > 100 µM (inactive) | > 100 µM (inactive) | > 100 µM (inactive) |  | > 100 µM (inactive) | > 100 µM (inactive) | > 100 µM (inactive) |
| C[C@]12Cc3conc3C(O)=C1CC[C@@H]1C2CC[C@@]2(C)C1CC[C@]2(C)O (stereo partly specified) | 9.04 µM (inactive) | 13.5 µM (inactive) | 15.1 µM (inactive) | 15.1 µM (inactive) | 21.6 µM (inactive) | 22.4 µM (inactive) | 16.4 µM (inactive) | 18.2 µM (inactive) |
| CN(C)c1cccc(-c2cc(O)c3cc4c(cc3n2)OCO4)c1 | 0.203 µM (active) | 0.216 µM (active) | 0.13 µM (active) | 0.401 µM (active) | 0.815 µM (active) | 62.8 µM (inactive) | 0.236 µM (active) | 0.144 µM (active) |
| O=C(N/C(=C/c1cccc([N+](=O)[O-])c1)c1nc2cc(Cl)ccc2[nH]1)c1ccccc1 |  | 10.5 µM (inactive) | 12.6 µM (inactive) | 24 µM (inactive) | 10.5 µM (inactive) | 39.9 µM (inactive) | 8.51 µM (inactive) |  |
| C[C@]12CCC3[C@@H](CC[C@@H]4c5nonc5CC[C@]34C)C1CCC2=O (stereo partly specified) | 19.5 µM (inactive) | 25.7 µM (inactive) | 23.3 µM (inactive) | 21.6 µM (inactive) | 38.2 µM (inactive) | 23.2 µM (inactive) | 20.6 µM (inactive) | 19.1 µM (inactive) |
| O=C(O)CN(c1ccc(F)cc1)S(=O)(=O)c1ccccc1 | > 100 µM (inactive) | > 100 µM (inactive) | > 100 µM (inactive) | > 100 µM (inactive) | > 100 µM (inactive) |  |  | > 100 µM (inactive) |
| CCOc1ccc(Nc2nc(C)c(C(=O)/C=C/c3ccc(Cl)cc3Cl)s2)cc1 | 21.4 µM (inactive) | 25.4 µM (inactive) | 18.8 µM (inactive) | 26.1 µM (inactive) | 21.8 µM (inactive) | 21.4 µM (inactive) | 24.9 µM (inactive) | 19.6 µM (inactive) |
| O=C1C=CC(=O)c2c1ccc1c3ccccc3n(-c3ccccn3)c21 | 39.4 µM (inactive) |  | 14.8 µM (inactive) | 21 µM (inactive) |  | > 100 µM (inactive) | 20.6 µM (inactive) | 15.6 µM (inactive) |
| Cc1cc2c(cc1C)[n+]([O-])c(C(=O)CC(=O)C(=O)Nc1ccccc1C)c(C)[n+]2[O-] | > 100 µM (inactive) | > 100 µM (inactive) | 84.7 µM (inactive) | > 100 µM (inactive) | 32 µM (inactive) | > 100 µM (inactive) |  |  |
| COC(=O)C1=Cc2cn(S(=O)(=O)c3ccc(C)cc3)c3cccc(c23)C(C=C(C)C)N1C(C)=O (stereo unspecified) | 6.01 µM (inactive) | 69.3 µM (inactive) | 32 µM (inactive) | 21.4 µM (inactive) |  | 24.5 µM (inactive) | 11.5 µM (inactive) | 9.55 µM (inactive) |
| COC(=O)C1=C(C(=O)OC)C2(C(=O)OC)OC1(OC)C(C1(C(=O)OC)C(C(=O)OC)=C1C(=O)OC)=C2C(=O)OC (stereo unspecified) | > 100 µM (inactive) | > 100 µM (inactive) | > 100 µM (inactive) | > 100 µM (inactive) |  | > 100 µM (inactive) | > 100 µM (inactive) | > 100 µM (inactive) |
| CCOc1ccc2c(c1)[n+]([O-])c(-c1ccc(Br)cc1)c(N)[n+]2[O-] | 39.4 µM (inactive) | 47 µM (inactive) | 52.2 µM (inactive) | 59.2 µM (inactive) | 56.4 µM (inactive) | > 100 µM (inactive) | 30.4 µM (inactive) | 49.9 µM (inactive) |
| O=S1(=O)NN=C(NCc2ccc(Cl)cc2)c2ccccc21 | > 100 µM (inactive) | > 100 µM (inactive) | 61.1 µM (inactive) | > 100 µM (inactive) | > 100 µM (inactive) | > 100 µM (inactive) | > 100 µM (inactive) | 90.6 µM (inactive) |
| Cc1ccc(NC(=O)CC/C(CC(=O)C(C)(C)C)=N/NC(=O)C(N)=O)cc1C | > 100 µM (inactive) | > 100 µM (inactive) | > 100 µM (inactive) | > 100 µM (inactive) | > 100 µM (inactive) | > 100 µM (inactive) | > 100 µM (inactive) | > 100 µM (inactive) |
